Experimental data as given in US20200268768A1, “CENICRIVIROC COMBINATION THERAPY FOR THE TREATMENT OF FIBROSIS” (Tobira Therapeutics, Inc., priority 2015, published 2020).
Where a name gives a salt, the structure may show the parent alone.

Tests used:
[1] = Solubility of cenicriviroc mesylate; format: physicochemical
[2] = test system: adults with CCR5 tropic HIV-1; experiment: Study 202 post-hoc APRI and FIB-4 fibrosis index scores; format: in vivo, human
Protocol: APRI and FIB-4 scores were calculated. Change in score category from baseline (BL) to Weeks 24 and 48 was assessed in patients with non-missing data. Correlations between changes from BL in APRI and FIB-4 scores, and MCP-1 (CCR2 ligand) and sCD14 (inflammatory biomarker) levels were evaluated.

[3] = test system: HIV-1 infected adult subjects; experiment: Study 202 biomarkers of inflammation; format: in vivo, human; settings: EFV 600 mg
Protocol: As an exploratory analysis, levels of inflammation biomarkers MCP-1, sCD14, high sensitivity C-reactive protein [hs-CRP], interleukin-6 [IL-6], D-dimer, and fibrinogen) were measured. Baseline values and changes from baseline at Week 24 and Week 48 of MCP-1, sCD14, hs-CRP, IL-6, D-dimer, and fibrinogen are summarized in Table 22.
The sCD14 samples were originally analyzed in 2 separate batches: Batch 1 included samples leading up to the Week 24 primary analysis and Batch 2 included Week 32 and Week 48 (end of study) samples. A repeat analysis of archived samples all analyzed in one batch was conducted for consistency in analysis across time points. To control for the effects of covariates, a linear mixed-model repeated-measures analysis was conducted on the changes from baseline in sCD14 (analysis dated September 2013).

[4] = Week 24, CVC pooled 100 and 200 mg, or EFV
[5] = Week 48, CVC pooled 100 and 200 mg, or EFV

## CCCCOCCOc1ccc(-c2ccc3c(c2)C=C(C(=O)Nc2ccc([S@@+]([O-])Cc4cncn4CCC)cc2)CCCN3CC(C)C)cc1 [cenicriviroc mesylate, (S)-8-[4-(2-Butoxyethoxy)phenyl]-1-isobutyl-N-(4-{[(1-propyl-1H-imidazol-5-yl)methyl]sulfinyl}phenyl)-1,2,3,4-tetrahydro-1-benzazocine-5-carboxamide monomethanesulfonoate]
[1]; aqueous solution at pH 3
  Solubility: sparingly soluble
[1]; aqueous solution from pH 1 to 2
  Solubility: freely soluble
[1]; aqueous solution from pH 4 to 13 and in water
  Solubility: practically insoluble
[1]; in 99.5% ethanol
  Solubility: sparingly soluble
[1]; in acetonitrile, 1-octanol, tetrahydrofuran
  Solubility: slightly soluble
[1]; in ethyl acetate and diethylether
  Solubility: practically insoluble
[1]; in glacial acetic acid, methanol, benzyl alcohol, dimethylsulfoxide, N,N-dimethylformamide
  Solubility: freely soluble
[1]; in pyridine and acetic anhydride
  Solubility: soluble

## O=C1Nc2ccc(Cl)cc2[C@@](C#CC2CC2)(C(F)(F)F)O1 [EFV, efavirenz, reference compound]
[2]; EFV arm, all subjects <1.45 at baseline
  Subjects with decrease in FIB-4 score by one category: no subject treated with EFV decreased in FIB-4 score by one category
[2]; [4]
  Subjects in APRI category <0.5: 100%
  Subjects in FIB-4 category <1.45: 100%
  Subjects with APRI decreased 1 category from baseline: 5%
[2]; [5]
  Subjects in APRI category <0.5: 100%
  Subjects in FIB-4 category 1.45-3.25: 6%
  Subjects in FIB-4 category <1.45: 94%
  Subjects with APRI decreased 1 category from baseline: 6%
[3]; Week 12
  sCD14 (original values) change from baseline, mean: 90000 pg/mL
  sCD14 (original values) change from baseline, median: 180000 pg/mL
[3]; Week 24
  D-dimer change from baseline, mean: -53 ng/mL
  D-dimer change from baseline, median: -26 ng/mL
  Fibrinogen change from baseline, mean: -28 mg/dL
  Fibrinogen change from baseline, median: -31 mg/dL
  IL-6 change from baseline, mean: -8.72 pg/mL
  IL-6 change from baseline, median: 0.00 pg/mL
  MCP-1 change from baseline, mean: -44 pg/mL
  MCP-1 change from baseline, median: -17 pg/mL
  hs-CRP change from baseline, mean: -0.46 mg/dL
  hs-CRP change from baseline, median: -0.01 mg/dL
  sCD14 (original values) change from baseline, mean: 230000 pg/mL
  sCD14 (original values) change from baseline, median: 130000 pg/mL
[3]; Week 32
  sCD14 (original values) change from baseline, mean: 480000 pg/mL
  sCD14 (original values) change from baseline, median: 170000 pg/mL
[3]; Week 48
  D-dimer change from baseline, mean: -34 ng/mL
  D-dimer change from baseline, median: 0.0 ng/mL
  Fibrinogen change from baseline, mean: -30 mg/dL
  Fibrinogen change from baseline, median: -22 mg/dL
  IL-6 change from baseline, mean: -13.11 pg/mL
  IL-6 change from baseline, median: 0.00 pg/mL
  MCP-1 change from baseline, mean: 4.2 pg/mL
  MCP-1 change from baseline, median: 33.6 pg/mL
  hs-CRP change from baseline, mean: -0.71 mg/dL
  hs-CRP change from baseline, median: -0.03 mg/dL
  sCD14 (original values) change from baseline, median: 460000 pg/mL
